Test results as given in paper PMC11503522, “Native Mass Spectrometry of Membrane Protein–Lipid Interactions in Different Detergent Environments” (Analytical Chemistry, 2024).

Experiments:
[1] = target: T1, AmtB-GlnK complex (Escherichia coli, UniProt P69681); experiment: native MS, mole fraction of lipid-bound states; assay type: binding; settings: ADP present, 200 mM ammonium acetate pH 7.4
T1 construct: with Nitrogen regulatory protein GlnK
T1 sequence (P69681 23-428): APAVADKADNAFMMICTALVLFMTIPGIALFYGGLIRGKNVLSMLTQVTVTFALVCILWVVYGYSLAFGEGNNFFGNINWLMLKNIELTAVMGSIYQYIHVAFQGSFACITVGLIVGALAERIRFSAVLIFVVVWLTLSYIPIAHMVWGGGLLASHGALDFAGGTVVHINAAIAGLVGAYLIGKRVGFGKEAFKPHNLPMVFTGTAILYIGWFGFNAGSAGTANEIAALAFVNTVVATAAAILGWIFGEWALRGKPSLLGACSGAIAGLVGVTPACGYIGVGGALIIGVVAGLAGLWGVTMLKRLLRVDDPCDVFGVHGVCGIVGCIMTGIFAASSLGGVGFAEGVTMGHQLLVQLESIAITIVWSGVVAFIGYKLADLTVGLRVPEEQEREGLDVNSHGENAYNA
T1 sequence (P0AC55 1-112 partner): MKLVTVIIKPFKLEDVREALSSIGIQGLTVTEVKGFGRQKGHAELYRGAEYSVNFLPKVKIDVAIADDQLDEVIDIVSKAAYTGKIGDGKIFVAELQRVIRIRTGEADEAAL

[2] = target: T2, AqpZ (AqpZ-STII) (Escherichia coli, UniProt P60844); experiment: native MS lipid titration, sequential binding model; settings: LDAO; first lipid bound; range over conditions; 200 mM ammonium acetate pH 7.4, room temperature; read-out: Kd1
T2 construct: C-terminal Strep-tag II
T2 sequence (P60844 1-231): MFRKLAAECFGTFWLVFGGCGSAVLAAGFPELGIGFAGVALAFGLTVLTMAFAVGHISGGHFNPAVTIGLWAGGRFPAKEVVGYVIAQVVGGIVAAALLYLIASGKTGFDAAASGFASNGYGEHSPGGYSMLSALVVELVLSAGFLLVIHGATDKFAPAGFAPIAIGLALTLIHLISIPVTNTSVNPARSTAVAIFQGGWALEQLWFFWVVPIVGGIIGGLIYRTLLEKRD

[3] = target: T3, Aquaporin Z from Escherichia coli containing a C-terminal Strep-tag II (Escherichia coli), P60844; experiment: native MS; 1 uM AqpZ in 200 mM ammonium acetate pH 7.4 with 2x CMC detergent (C8E4 or LDAO alone; DM, OGNG, NG, C8E4 or LDAO with 5 mM SPM or 60 mM TMAO); nanoESI, Exactive Plus EMR Orbitrap, room temperature; settings: remark: other sources report otherwise
T3 chain: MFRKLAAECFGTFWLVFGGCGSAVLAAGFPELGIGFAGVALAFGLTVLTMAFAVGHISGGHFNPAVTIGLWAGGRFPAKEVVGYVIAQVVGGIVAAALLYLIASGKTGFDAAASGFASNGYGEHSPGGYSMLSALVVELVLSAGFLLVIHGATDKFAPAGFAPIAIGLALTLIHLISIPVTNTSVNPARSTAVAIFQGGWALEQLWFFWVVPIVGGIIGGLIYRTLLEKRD

## CCCCCCCC/C=C\CCCCCCCC(=O)O[C@H](COC(=O)CCCCCCCCCCCCCCC)COP(=O)(O)O [POPA]
[1]; several detergents
  native MS, mole fraction of lipid-bound states: POPA and POPS binding to AmtB-GlnK was broadly comparable for the different detergents

## CCCCCCCC/C=C\CCCCCCCC(=O)O[C@H](COC(=O)CCCCCCCCCCCCCCC)COP(=O)(O)OCC(O)CO (some centres unmarked) [POPG]
[1]; several detergents
  native MS, mole fraction of lipid-bound states: AmtB-GlnK in different detergent environments showed comparable binding of POPG

## CCCCCCCC/C=C\CCCCCCCC(=O)OC[C@H](COP(=O)(O)OCC(O)COP(=O)(O)OC[C@@H](COC(=O)CCCCCCC/C=C\CCCCCCCC)OC(=O)CCCCCCC/C=C\CCCCCCCC)OC(=O)CCCCCCC/C=C\CCCCCCCC (some centres unmarked) [TOCDL]
[1]; 2 μM complex, 25 μM lipid, C8E4, LDAO, DM or NG
  native MS, mole fraction of lipid-bound states: binding of TOCDL was more prominent in LDAO and DM
[2]
  Kd: 0.3 to 1.4 µM

B1: Aquaporin Z from Escherichia coli containing a C-terminal Strep-tag II, P60844 1-231 (natural protein)
chain: MFRKLAAECFGTFWLVFGGCGSAVLAAGFPELGIGFAGVALAFGLTVLTMAFAVGHISGGHFNPAVTIGLWAGGRFPAKEVVGYVIAQVVGGIVAAALLYLIASGKTGFDAAASGFASNGYGEHSPGGYSMLSALVVELVLSAGFLLVIHGATDKFAPAGFAPIAIGLALTLIHLISIPVTNTSVNPARSTAVAIFQGGWALEQLWFFWVVPIVGGIIGGLIYRTLLEKRD
[3]
  stoichiometry N: 4
